Patent publication US5232684A, “Labelled resiniferatoxin, compositions thereof, and methods for using the same” (priority 1990, dated 1993)
pKd: −log10 of the molar value. Where two headings read alike, the source gives them in different places.

Tests used:
[1] = target: T1, capsaicin receptor (rat DRG membranes) (Rattus norvegicus, UniProt O35433); assay: biochemical; type: binding
T1 construct: membrane preparations from dorsal root ganglia (DRG) of female Sprague-Dawley rats; from tissue; host or cells: dorsal root ganglia of female Sprague-Dawley rats
Procedure: (§1) Membrane preparations are obtained from the DRG and Gasser ganglia of female Sprague-Dawley rats (250-300 g); animals are sacrificed by decapitation under ether anesthesia, the ganglia removed and collected into ice-cold disrupting buffer (5 mM KCl, 5.8 mM NaCl, 2 mM MgCl2, 12 mM glucose, 137 mM sucrose, 10 mM HEPES, 5 mM DTT, 2 mM EGTA, pH 7.4). After homogenization with the aid of a Polytron tissue homogenizer, samples are filtered over surgical gauze and then washed twice with the same buffer and stored at -70° C. Particulate fractions are obtained from other rat neural tissues (cerebellum, spinal cord, preoptic region, striatum, substantia nigra) and from DRG of pigs (Mt. Airy Locker Co., Mt. Airy, MD), sheep, cows (kindly provided by Dr. Solomon, USDA, Beltsville, MD), and chickens (Truslow Farms, Chesterton, MD) by a similar procedure.
(§2) The binding assays are carried out in a volume of 250 ul, containing assay buffer (same as the disrupting buffer but omitting DTT and EGTA and including 0.75 mM CaCl2), 26-30 ug of membrane protein and 0.25 mg/ml bovine serum albumin. […] Tubes are kept on ice while the additions are made. The assay mixture is incubated for 10 min at 37° C.; it is then cooled on ice. 150 ul of the mixture is pipetted onto Whatman GF/C or GF/F glass fiber filters presoaked with 10 mg/ml bovine serum albumin in 20 mM Tris-Cl (pH 7.4) and filtered immediately. An aliquot of 50 ul of the mixture is removed to determine total radioactivity. The filters are washed with 100 ml of ice-cold 20 mM Tris-Cl, pH 7 4, containing 0.1 mg/ml bovine serum albumin, and the bound radioactivity is determined by scintillation counting. Non-specific binding is determined in the presence of 100-1000 nM non-radioactive RTX.
(§3) Binding data from saturation experiments using increasing concentrations of hot ligand are analyzed using the collection of computer programs described by McPherson (McPherson, G.A., Analysis of radioligand binding experiments: a collection of computer programs for the IBM PC, J.Pharmacol.Methods, 14 (1985) 213-228).
(§4) Scatchard and Hill transformations are performed by the Equilibrium Binding Data Analysis program referred to as EBDA. Data are further analyzed by the curvilinear regression program LIGAND (Munson, R.J. and Rodbard, D., LIGAND: a versatile computerized approach for characterization of ligand-binding systems, Anal.Biochem, 107 (1980) 220-239).
RTX binding is also analyzed in the presence of a fixed, low (60 pM or 300 pM) concentration of [^3 H]RTX and increasing concentrations of non-radioactive RTX or other ligand. […] The Ki value for RTX is calculated from the relationship Ki =ID50 -L; the Ki values for other ligands are calculated from the general form of the equation (Cheng, Y.C. and Prusoff, W.H., Relation between the inhibition constant (Ki) and the concentration of inhibitor which causes 50 per cent inhibition (I50) of an enzymatic reaction, Biochem. Pharmacol., 22 (1973) 3099-3108) Ki =IC50 /(1+L/Kd) where L=concentration of labelled ligand and Kd =dissociation constant of radioactive ligand as determined in the saturation experiments using variable concentrations of hot ligand. Comparison of the quality of fit using single and multiple site competition models is performed by the LIGAND program.
[^3 H]RTX binding is examined using membrane preparations from dorsal root ganglia (DRG) of female Sprague-Dawley rats.

[2] = target: T2, capsaicin receptor (pig DRG membranes) (Sus scrofa, UniProt F1RLJ0); assay: biochemical; type: binding
T2 construct: tissue Mt; Airy Locker Co., Mt; Airy, MD; host or cells: pig dorsal root ganglia
Procedure: as §1
Subcellular fractions are prepared by a modification of the method of Bastiaensen et al. (Bastiaensen, E., Miserez, B. and De Potter, W., Subcellular fractionation of bovine ganglion stellatum: co-storage of noradrenaline, Met-enkephalin and neuropeptide Y in large `dense-cored` vesicles, Brain Res., 442 (1988) 124-130. ) Briefly: DRG are dissected free from capsule, cut into small pieces with scissors, and then homogenized with a teflon pestle (20 strokes) in ice-cold 0.25 M sucrose/ 20 mM Tris-Cl (pH 7.4) buffer. The homogenate is filtered over surgical gauze; it is then centrifuged for 10 min at 2000 gmax, giving a pellet P1, and again at 10 000 gmax for 15 min giving a pellet P2. The P1 and P2 pellets are saved as nuclear and mitochondrial fractions for binding studies. The resulting supernatant is further centrifuged at 50 000 gmax for 60 min, and then the pellet is harvested as the plasma-membrane enriched microsomal fraction.
as §2, §3, §4
RTX binding is also analyzed in the presence of a fixed, low (60 pM or 300 pM) concentration of [^3 H]RTX and increasing concentrations of non-radioactive RTX or other ligand.

[3] = test system: capsaicin receptor (cow DRG); assay: [^3H]RTX binding to cow DRG membranes; details: DRG from cows
striatum = assay: [^3H]RTX binding to rat striatum

T2 sequence (F1RLJ0 1-841): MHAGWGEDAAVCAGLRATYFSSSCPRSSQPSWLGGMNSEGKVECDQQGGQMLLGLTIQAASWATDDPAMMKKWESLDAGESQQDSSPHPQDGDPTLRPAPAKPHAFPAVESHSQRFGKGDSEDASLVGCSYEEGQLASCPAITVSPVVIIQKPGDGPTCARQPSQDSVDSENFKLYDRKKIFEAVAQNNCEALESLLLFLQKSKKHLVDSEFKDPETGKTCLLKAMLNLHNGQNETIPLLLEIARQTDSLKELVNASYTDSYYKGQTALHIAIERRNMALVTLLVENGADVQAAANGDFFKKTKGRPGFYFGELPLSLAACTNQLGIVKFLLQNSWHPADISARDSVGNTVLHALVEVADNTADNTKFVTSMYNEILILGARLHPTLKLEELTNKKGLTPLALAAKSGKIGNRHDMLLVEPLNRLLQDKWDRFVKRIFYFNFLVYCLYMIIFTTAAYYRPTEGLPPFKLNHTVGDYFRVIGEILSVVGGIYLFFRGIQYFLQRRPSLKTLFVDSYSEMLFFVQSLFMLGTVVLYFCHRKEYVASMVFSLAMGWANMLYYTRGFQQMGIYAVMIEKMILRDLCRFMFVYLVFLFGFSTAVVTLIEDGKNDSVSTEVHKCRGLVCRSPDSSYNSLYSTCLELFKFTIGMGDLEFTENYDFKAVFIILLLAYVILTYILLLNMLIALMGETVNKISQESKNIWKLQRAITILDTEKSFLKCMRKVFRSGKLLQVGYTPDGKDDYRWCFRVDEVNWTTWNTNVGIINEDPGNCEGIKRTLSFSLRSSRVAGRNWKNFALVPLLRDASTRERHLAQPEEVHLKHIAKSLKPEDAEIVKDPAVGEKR
T1 sequence (O35433 whole entry): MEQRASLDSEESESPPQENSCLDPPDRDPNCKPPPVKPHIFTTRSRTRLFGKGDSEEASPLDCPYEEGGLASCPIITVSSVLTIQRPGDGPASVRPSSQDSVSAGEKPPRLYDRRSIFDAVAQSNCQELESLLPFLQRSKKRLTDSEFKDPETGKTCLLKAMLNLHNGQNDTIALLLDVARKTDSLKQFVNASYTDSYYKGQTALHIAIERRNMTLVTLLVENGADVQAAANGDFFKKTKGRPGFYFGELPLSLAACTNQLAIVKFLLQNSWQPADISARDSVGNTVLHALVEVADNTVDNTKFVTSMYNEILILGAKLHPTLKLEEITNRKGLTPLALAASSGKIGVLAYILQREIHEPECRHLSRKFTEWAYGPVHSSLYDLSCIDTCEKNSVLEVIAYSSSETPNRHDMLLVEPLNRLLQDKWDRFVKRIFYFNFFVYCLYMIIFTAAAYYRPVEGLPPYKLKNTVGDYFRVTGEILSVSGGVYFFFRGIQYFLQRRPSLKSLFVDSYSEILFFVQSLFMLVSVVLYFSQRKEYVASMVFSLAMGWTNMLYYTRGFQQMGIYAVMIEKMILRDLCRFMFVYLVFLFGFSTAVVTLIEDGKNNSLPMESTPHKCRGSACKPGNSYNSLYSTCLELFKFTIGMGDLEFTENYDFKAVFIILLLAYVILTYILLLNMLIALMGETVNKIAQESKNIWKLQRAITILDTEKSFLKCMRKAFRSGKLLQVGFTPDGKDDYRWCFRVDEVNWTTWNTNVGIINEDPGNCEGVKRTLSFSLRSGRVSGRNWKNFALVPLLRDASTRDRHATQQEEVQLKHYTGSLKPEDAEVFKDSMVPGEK

**Q.** What does the source list for C=C(C)[C@]12C[C@@H](C)[C@@]34O[C@](Cc5ccccc5)(O[C@@H]1[C@@H]3C=C(COC(=O)Cc1ccc(O)c(OC)c1)C[C@]1(O)C(=O)C(C)=C[C@@H]41)O2 [[^3 H]RTX, [^3 H]resiniferatoxin]?
**A.** Bmax (summary) ([1]; rat DRG): 160 fmol/mg; specific binding to the DRG membranes ([1]; rat DRG): specific, saturable binding; Hill coefficient ([1]; rat DRG membranes): 0.96; specific binding of the total at the Kd ([1]; rat DRG membranes, at the Kd): approximately 50%; Bmax (Scatchard analysis) ([1]; rat DRG membranes, 3 separate determinations): 150 fmol/mg protein; pKd ([1]; rat DRG membranes, data cumulated from 3 separate determinations, read-out: Kd (Scatchard analysis)): 9.52; Bmax (curvilinear analysis, LIGAND) ([1]; rat DRG membranes, final parameter estimate): 160 fmol/mg protein; pKd ([1]; rat DRG membranes, one site model, final parameter estimate, read-out: Kd (curvilinear analysis, LIGAND)): 9.57; pKd ([1]; rat DRG, read-out: Kd (summary)): 9.57; specific binding ([2]; DRG from pigs): Specific binding is observed; Bmax (summary) ([2]; pig DRG): 730 fmol/mg; specific [^3H]RTX binding after heating of membranes ([2]; pig DRG membranes heated to 55° C. for 10-20 min, 2 experiments): completely inactivates; time at which specific binding is maximal ([2]; pig DRG membranes, 37° C.): 10 min; Hill coefficient ([2]; pig DRG, partially purified membrane preparations): 0.9; Bmax (Scatchard analysis) ([2]; pig DRG, partially purified membrane preparations, 2 separate determinations): 700 fmol/mg protein; pKd ([2]; pig DRG, partially purified membrane preparations, 2 separate determinations, LIGAND, read-out: Kd (Scatchard analysis)): 8.77; Bmax (competition) ([2]; pig DRG, mean±SEM, 4 determinations): 730±80 fmol/ mg protein; specific binding [3]: Specific binding is observed; detection of [^3H]RTX binding (striatum): very difficult
